Data on 19 molecules can be found in US20260216182A1, “PYRIDAZINE NLRP3 INHIBITOR COMPOUND, PHARMACEUTICAL COMPOSITION, AND PREPARATION METHOD THEREFOR AND USE THEREOF” (CHANGCHUN GENESCIENCE PHARMACEUTICAL CO., LTD., priority 2022, published 2026).

Where two headings read alike, the source gives them in different places.

In one experiment the target is T1, NLRP3 (Homo sapiens, UniProt Q96P20).
T1 construct: endogenous in cells; host or cells: THP-1 (human monocyte, PMA-differentiated, LPS-primed, nigericin-stimulated)
T1 sequence (Q96P20 whole entry): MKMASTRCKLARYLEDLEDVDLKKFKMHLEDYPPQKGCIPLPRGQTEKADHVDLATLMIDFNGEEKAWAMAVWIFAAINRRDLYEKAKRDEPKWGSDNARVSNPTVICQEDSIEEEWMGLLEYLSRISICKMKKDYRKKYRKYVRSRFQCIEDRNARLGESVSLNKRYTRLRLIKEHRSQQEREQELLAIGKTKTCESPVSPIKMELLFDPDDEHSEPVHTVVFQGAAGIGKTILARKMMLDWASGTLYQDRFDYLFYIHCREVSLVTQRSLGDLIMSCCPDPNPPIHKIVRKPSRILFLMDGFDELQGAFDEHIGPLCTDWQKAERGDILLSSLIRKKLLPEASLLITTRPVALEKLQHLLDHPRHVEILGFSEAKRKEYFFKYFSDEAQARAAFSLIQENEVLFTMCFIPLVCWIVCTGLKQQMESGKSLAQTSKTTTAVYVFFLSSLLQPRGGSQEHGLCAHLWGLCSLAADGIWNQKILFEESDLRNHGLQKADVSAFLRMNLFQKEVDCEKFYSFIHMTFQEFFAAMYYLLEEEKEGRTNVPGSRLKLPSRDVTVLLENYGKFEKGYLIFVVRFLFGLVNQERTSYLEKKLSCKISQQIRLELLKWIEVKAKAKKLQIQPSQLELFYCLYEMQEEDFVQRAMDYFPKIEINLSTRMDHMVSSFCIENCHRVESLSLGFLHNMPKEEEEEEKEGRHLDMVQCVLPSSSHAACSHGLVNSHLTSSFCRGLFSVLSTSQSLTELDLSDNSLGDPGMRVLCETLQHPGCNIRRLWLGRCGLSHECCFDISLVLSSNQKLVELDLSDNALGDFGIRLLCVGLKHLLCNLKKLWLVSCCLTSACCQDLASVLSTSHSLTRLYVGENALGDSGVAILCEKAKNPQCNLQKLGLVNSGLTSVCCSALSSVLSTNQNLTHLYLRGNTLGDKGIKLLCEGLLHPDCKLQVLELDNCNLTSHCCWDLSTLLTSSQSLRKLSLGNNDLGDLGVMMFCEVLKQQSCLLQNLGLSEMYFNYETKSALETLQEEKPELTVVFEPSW
The experiment can be described thus: IC50 of NLRP3 inhibitors in reducing IL-1β secretion by THP-1 cells (PMA, LPS, nigericin; ELISA). The format is cell-based. The following applies: compound + nigericin 1 h. The procedure: Test Example 1 Experiment on Detection of IC50 of NLRP3 Inhibitors in Reducing the Level of IL-1β Secretion by THP-1 Cells
In this experiment, we use the human monocyte THP-1 to study the inhibitory activity of NLRP3 inhibitor on the secretion of IL-Iβ by cells. Human THP-1 cells are treated with crotonol-12-tetradecanoate-13-acetate (PMA) to differentiate into mature macrophage models. Then, according to the two stages of inflammasome formation in cells (assembly and activation), the cells are stimulated with lipopolysaccharide (LPS) and nigericin in turn, ultimately promoting the extracellular release of IL-1β by THP-1 cells. The first stage of inflammasome formation involves stimulating cells with LPS (lipopolysaccharide), an agonist of the Toll-like receptor TLR4, to activate the expression of the inflammasome-associated proteins NLRP3, caspase 1, and pro-IL-1β, a precursor of IL-1β. The second stage of inflammasome formation involves the addition of the potassium ion carrier nigericin, which causes a series of membrane potential changes in THP-1 cells, destroys the cell membrane structure, causes the efflux of cellular potassium ions, further stimulates the oligomerization of NLRP3 monomers to form NLRP3 oligomers, and begins to recruit ASC and pro-caspase-1 to assemble the NLRP3 inflammasome complex containing a large amount of pro-caspase-1. The pro-caspase-1 on the activated NLRP3 inflammasome is enzymatically self-activated to form a large amount of active caspase-1. The activated caspase-1 further enzymatically promotes the conversion of pro-IL-1β into mature IL-1β that can be secreted.
(1) Cell suspensions were collected. The cells were centrifuged at 1000 rpm for 4 min, the supernatant was discarded, the cells were resuspended with 1 mL of test medium, and then the cell culture medium was gently pipetted up and down with a pipette and its tip to break up the cell aggregates. After counting the cells, the THP-1 cells were resuspended with complete RPMI medium 1640 containing PMA and seeded into 96-well plates and cultured in a 37° C., 5% CO2 incubator for 72 h.
(2) The culture medium was taken out from each well with an automatic plate washer dispenser EL406 and each well was rinsed twice with PBS. To each well, 96 μL of RPMI 1640 medium containing LPS was added. The cells were cultured in a 37° C., 5% CO2 incubator for 4 h.
(3) To each well, 2 μL of the compound and 2 μL of nigericin sodium salt were added, and the final compound concentration selected was 5000 nM, 1000 nM, 200 nM, 40 nM, 8 nM, 1.6 nM, 0.32 nM, 0 nM, respectively. The cells were cultured in a 37° C., 5% CO2 incubator for 1 h.
(4) An appropriate amount of supernatant was taken out, diluted 100 times, and the content of IL-1β in the supernatant was detected using Human IL-1 beta Valukine ELISA kit.
(In general: In an ELISA, binding on a coated surface is turned into a signal by an enzyme label.)

In a further experiment the test system is IL-1β. The experiment in a line: Mouse acute peritonitis model (LPS/ATP), IL-1β in peritoneal lavage fluid and blood. The class given is in vivo, C57BL/6 mice. The conditions noted are these: Mus musculus, 10 mg/kg oral, vs vehicle group. Here is the method: Test Example 2: Mouse Acute Peritonitis Model Evaluation Experiment
Male C57BL/6 mice were orally administered with a 10 mg/kg dose of the test compound or control vehicle, and then injected intraperitoneally with 1 μg of E. coli 055: B5 ultrapure lipopolysaccharide (LPS) suspension 1 h later, followed by an intraperitoneal injection of 0.5 ml of 30 mM disodium salt ATP suspension (in PBS, the pH of the ATP solution was adjusted to 7.2 before injection) 2 h later. After 30 min, all animals would be euthanized by carbon dioxide, and blood and peritoneal lavage fluid would be collected. The peritoneal lavage fluid was kept at 4° C.
Preparation of peritoneal lavage fluid: The peritoneal cavity would be lavaged with ice-cold PBS (3 mL) containing 25 U/mL heparin and 10% heat-inactivated FBS. Prior to use, one tablet of the protease inhibitor mixture was added per 50 mL of buffer. The collected lavage fluid would be centrifuged (centrifugation conditions: 1000g, 4° C., 10 min) to remove cells and cell debris, and the clarified samples would be stored at −80° C. for measurement of cytokine IL-1β.
The mouse IL-1β/IL-1F2 DuoSet ELISA kit (R&D Systems) was used to measure the changes in IL-1β cytokine levels in peritoneal lavage fluid and serum. By comparing with the Vehical group, the inhibition rate of the compound on IL-1β was calculated.

Setting [1] is: read-out: IL-1β Peritoneal lavage fluid (inhibition rate).
[2] abbreviates: read-out: IL-1β Plasma (inhibition rate).

On to `OC[C@@H](O)CNc1nnc(-c2ccc(Cl)cc2O)c2ccc(C#CC3CC3)cc12` [Compound 079, (S)-3-((4-(4-chloro-2-hydroxyphenyl)-7-(cyclopropylethynyl)phthalazin-1-yl)amino) propan-1,2-diol], for which the IC50 at NLRP3 turned out to be 41 nM. Moreover, the inhibition at 10 mg/kg in the experiment with IL-1β (setting [1]) amounted to 51%; with IL-1β (setting [2]), 21%.
Taken in the same sequence, the figures for `CC(=O)c1ccc2c(-c3ccc(C(F)(F)F)cc3O)nnc(NC[C@H](O)CO)c2c1` [Compound 082] were 32 nM, 0% and 12%.
In the case of `CC#Cc1ccc2c(-c3ccc(C(F)(F)F)cc3O)nnc(N[C@H]3C[C@@](C)(O)C3)c2c1` [Compound 065, 2-(4-(((1S, 3S)-3-hydroxy-3-methylcyclobutyl)amino)-6-(prop-1-yn-1-yl)phthalazin-1-yl)-5-(trifluoromethyl)phenol], on NLRP3, the half-maximal inhibitory concentration (IC50) came to 13 nM.
As for `CC#Cc1ccc2c(-c3ccc(Cl)cc3O)nnc(N[C@@H]3CCN(CCO)C3=O)c2c1` [Compound 074, (R)-3-((4-(4-chloro-2-hydroxyphenyl)-7-(prop-1-yn-1-yl)phthalazin-1-yl)amino)-1-(2-hydroxyethyl)pyrrolidin-2-one], the IC50 at NLRP3 came to 7.2 nM.
As for `CC#Cc1ccc2c(-c3ccc(C(F)(F)F)cc3O)nnc(NCC(C)(C)O)c2c1` [Compound 069, 2-(4-((2-hydroxy-2-methylpropyl)amino)-6-(prop-1-yn-1-yl)phthalazin-1-yl)-5-(trifluoromethyl)phenol], at NLRP3, the IC50 was determined as 31 nM.
As to `CC(C)(O)CNc1nnc(-c2ccc3sc(F)cc3c2O)c2ccc(C#N)cc12` [Compound 019, 1-(2-fluoro-4-hydroxybenzo[b]thiophen-5-yl)-4-((2-hydroxy-2-methylpropyl)amino) phthalazine-6-carbonitrile], the IC50 on NLRP3 came to 111 nM.
For the molecule `Cc1cc(Cl)cc(O)c1-c1nnc(NCC(C)(C)O)c2cc(-n3cccn3)ccc12` [Compound 026, 5-chloro-2-(4-((2-hydroxy-2-methylpropyl)amino)-6-(1H-pyrazol-1-yl)phthalazin-1-yl)-3-methylphenol], at NLRP3, the 50% inhibitory concentration (IC50) was found to be 35 nM.
For the molecule `CC#Cc1ccc2c(-c3ccc(Cl)cc3O)nnc(N[C@@H]3CC(=O)N(CCO)C3)c2c1` [Compound 073, (R)-4-((4-(4-chloro-2-hydroxyphenyl)-7-(prop-1-yn-1-yl)phthalazin-1-yl)amino)-1-(2-hydroxyethyl)pyrrolidin-2-one], on NLRP3, the IC50 was 51 nM.
For `CC#Cc1ccc2c(-c3c(O)cc(Cl)cc3F)nnc(NC[C@H](O)CO)c2c1` [Compound 063, (2S)-3-((4-(4-chloro-2-fluoro-6-hydroxyphenyl)-7-(prop-1-yn-1-yl)phthalazin-1-yl)amino) propan-1,2-diol], on NLRP3, the IC50 came to 15 nM. Also, the inhibition at 10 mg/kg in the experiment on IL-1β (setting [1]) turned out to be 79%; in the experiment with IL-1β (setting [2]) it was 74%.
Take `CC#Cc1ccc2c(-c3ccc(C(F)(F)F)cc3O)nnc(N[C@@H]3CCCC[C@H]3O)c2c1` [Compound 061, 2-(4-(((1R,2R)-2-hydroxycyclohexyl)amino)-6-(prop-1-yn-1-yl)phthalazin-1-yl)-5-(trifluoromethyl)phenol]: the IC50 at NLRP3 came out at 23 nM.
On the same count and under the same terms, then `Cc1cc(C(F)(F)F)cc(O)c1-c1nnc(NCC(C)(C)O)c2cc(C#N)ccc12` [Compound 007, 4-((2-hydroxy-2-methylpropyl)amino)-1-(2-hydroxy-6-methyl-4-(trifluoromethyl)phenyl) phthalazin-6-carbonitrile], with 29 nM.
For `CC#Cc1ccc2c(-c3c(C)cc(Cl)cc3O)nnc(NCC(C)(C)O)c2c1` [Compound 024, 5-chloro-2-(4-((2-hydroxy-2-methylpropyl)amino)-6-(1-propyn-1-yl)phthalazin-1-yl)-3-methylphenol], the IC50 on NLRP3 worked out at 19 nM.
`C[C@@H](C(N)=O)N1CCC[C@@H](Nc2nnc(-c3ccc(Cl)cc3O)c3ccncc23)C1` [Compound 016, (S)-2-((R)-3-((1-(4-chloro-2-hydroxyphenyl)pyrido[3,4-d]pyridazin-4-yl)amino)piperidin-1-yl) propionamide]: on NLRP3, the IC50 was 11 nM.
Regarding `Cn1cc(-c2ccc3c(-c4ccc(Cl)cc4O)nnc(NCC(C)(C)O)c3c2)cn1` [Compound 004, 5-chloro-2-(4-((2-hydroxy-2-methylpropyl)amino)-6-(1-methyl-1H-pyrazol-4-yl)phthalazin-1-yl)phenol], on NLRP3, the IC50 was 63 nM.
For `N#Cc1ccc2c(-c3ccc(Cl)cc3O)nnc(N[C@@H]3CCCN(C(=O)C4CC4)C3)c2c1` [Compound 005, (R)-1-(4-chloro-2-hydroxyphenyl)-4-((1-(cyclopropanecarbonyl)piperidin-3-yl)amino) phthalazin-6-carbonitrile], the IC50 on NLRP3 is 37 nM.
`CC(=O)c1ccc2c(-c3ccc(C(F)(F)F)cc3O)nnc(N[C@@H]3CCCC[C@H]3O)c2c1` [Compound 081]: the IC50 at NLRP3 turned out to be 5.3 nM. Moreover, the inhibition at 10 mg/kg in the experiment with IL-1β (setting [1]) was 45%; in the experiment on IL-1β (setting [2]), 61%.
In the case of `CC#Cc1ccc2c(-c3c(O)cc(C(F)(F)F)cc3F)nnc(NC[C@H](O)CO)c2c1` [Compound 064, (2S)-3-((4-(2-fluoro-6-hydroxy-4-(trifluoromethyl)phenyl)-7-(prop-1-yn-1-yl)phthalazin-1-yl)amino) propan-1,2-diol], the IC50 on NLRP3 was 18 nM. The inhibition at 10 mg/kg is 81% with IL-1β (setting [1]) and 90% in the experiment on IL-1β (setting [2]).
On to `CC(C(=O)N1CCCC1)N1CCC[C@@H](Nc2nnc(-c3ccc(Cl)cc3O)c3ccncc23)C1` (some centres unmarked) [Compound 042], for which, on NLRP3, the concentration for half-maximal inhibition (IC50) amounted to 14 nM.
The same measure, in the same setting: then `CC#Cc1ccc2c(-c3ccc(C(F)(F)F)cc3O)nnc(NC[C@H](O)CO)c2c1` [Compound 056, (S)-3-((4-(2-hydroxy-4-(trifluoromethyl)phenyl)-7-(prop-1-yn-1-yl)phthalazin-1-yl)amino) propan-1,2-diol], with 18 nM.

As usually defined, the IC50 is the concentration needed to halve the response being measured. One may read the inhibition as the percentage by which the read-out fell short of the control.
